In brackets after ≈: the same amount, converted by molar mass.
Columns and labels:
[1] = system: Mycobacterium tuberculosis; experiment: microbe, parasite or virus in culture; conditions: H37Rv
Description: Antibacterial activity against Mycobacterium tuberculosis H37Rv assessed as inhibition of bacterial growth

[2] = system: Mycobacterium tuberculosis; assay type: functional; conditions: H37Rv, time 6 day
[3] = system: Mycobacterium tuberculosis; assay type: functional; conditions: H37Rv, 168 h, time 7 day
[4] = system: Mycobacterium tuberculosis; experiment: Bactericidal activity against Mycobacterium tuberculosis H37Rv in chronic Mtb infection BALB/c mouse model assessed as log10 CFU kill at 20 mg/kg, po qd via gavage measured after 4 weeks; assay type: functional
[5] = system: Mycobacterium tuberculosis; experiment: Antibacterial activity against Mycobacterium tuberculosis assessed as inhibition of bacterial growth; assay type: functional
[6] = system: Mycobacterium tuberculosis; experiment: Antibacterial activity against Mycobacterium tuberculosis in chronic Mtb infection mouse model assessed as reduction in log10 CFU at 100 mg/kg bid; assay type: functional
[7] = system: Mycobacterium tuberculosis; assay type: functional; conditions: dose 100 mg/kg; route po; time 4 weeks
[8] = system: Mycobacterium tuberculosis; experiment: Antibacterial activity against Mycobacterium tuberculosis in acute Mtb infection BALB/c mouse model assessed as reduction in log10 CFU in lungs at 100 mg/kg for 3 weeks; assay type: functional
[9] = Cytotoxicity against human MRC5 cells; assay type: toxicity, cell-based
[10] = system: Mycobacterium tuberculosis; experiment: Antibacterial activity against Mycobacterium tuberculosis Erdman in acute Mtb infection BALB/c mouse model assessed as reduction in log10 CFU in lungs at 200 mg/kg, po daily via gavage for 3 weeks; assay type: functional
[11] = system: Mycobacterium tuberculosis; experiment: Antibacterial activity against non-replicating Mycobacterium tuberculosis assessed as inhibition of bacterial growth; assay type: functional
[12] = system: Mycobacterium tuberculosis; assay type: functional; conditions: H37Rv, 168 h, time 7 day; remark: listed apart in the source
[13] = system: Mycobacterium tuberculosis; assay type: functional; conditions: H37Rv
[14] = Aqueous solubility of compound in PBS at pH 7.4 incubated for 1 hr; assay type: physicochemical
[15] = system: Mycobacterium tuberculosis; experiment: Antibacterial activity against Mycobacterium tuberculosis in chronic Mtb infection BALB/c mouse model assessed as reduction in log10 CFU in lungs at 200 mg/kg for 4 weeks; assay type: functional
[16] = Cytotoxicity against African green monkey Vero cells treated for 72 hrs by MTT assay; assay type: toxicity, cell-based; conditions: chlorocebus sabaeus
[17] = system: HepG2; experiment: Cytotoxicity against human HepG2 cells treated for 72 hrs by MTT assay; assay type: functional
[18] = molecular target: T1, Voltage-gated inwardly rectifying potassium channel KCNH2 (Homo sapiens, UniProt Q12809)
T1 sequence (Q12809 whole entry): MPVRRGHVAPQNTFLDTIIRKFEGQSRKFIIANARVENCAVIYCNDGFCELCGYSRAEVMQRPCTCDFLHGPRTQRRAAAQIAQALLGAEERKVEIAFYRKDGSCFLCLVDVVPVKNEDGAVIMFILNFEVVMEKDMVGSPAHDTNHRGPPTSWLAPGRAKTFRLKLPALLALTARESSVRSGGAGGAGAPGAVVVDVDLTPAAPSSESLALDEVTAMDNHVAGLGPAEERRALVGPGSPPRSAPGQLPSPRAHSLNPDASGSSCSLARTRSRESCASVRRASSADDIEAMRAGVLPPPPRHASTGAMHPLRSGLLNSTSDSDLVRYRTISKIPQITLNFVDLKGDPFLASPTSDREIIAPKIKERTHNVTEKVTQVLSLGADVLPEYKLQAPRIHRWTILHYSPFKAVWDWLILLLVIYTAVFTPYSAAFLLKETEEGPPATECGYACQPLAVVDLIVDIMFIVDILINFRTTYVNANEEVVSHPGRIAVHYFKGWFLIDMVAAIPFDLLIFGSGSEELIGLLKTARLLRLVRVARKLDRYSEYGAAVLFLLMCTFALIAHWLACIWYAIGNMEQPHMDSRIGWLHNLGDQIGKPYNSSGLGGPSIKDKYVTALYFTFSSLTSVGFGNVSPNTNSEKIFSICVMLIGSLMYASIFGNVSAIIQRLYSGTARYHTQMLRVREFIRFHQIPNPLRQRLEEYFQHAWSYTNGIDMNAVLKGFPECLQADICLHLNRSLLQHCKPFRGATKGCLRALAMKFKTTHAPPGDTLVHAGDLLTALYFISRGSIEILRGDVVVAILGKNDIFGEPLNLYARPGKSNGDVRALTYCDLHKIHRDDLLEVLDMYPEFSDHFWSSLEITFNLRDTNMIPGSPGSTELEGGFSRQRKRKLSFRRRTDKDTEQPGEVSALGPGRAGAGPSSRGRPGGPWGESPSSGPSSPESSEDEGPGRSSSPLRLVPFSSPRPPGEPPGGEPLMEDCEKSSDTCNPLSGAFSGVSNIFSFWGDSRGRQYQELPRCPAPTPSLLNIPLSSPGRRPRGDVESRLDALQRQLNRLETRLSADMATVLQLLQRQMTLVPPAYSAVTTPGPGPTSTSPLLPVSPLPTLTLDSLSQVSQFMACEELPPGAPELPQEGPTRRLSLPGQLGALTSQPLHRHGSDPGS

[19] = Oral bioavailability in Swiss Webster mouse at 10 mg/kg measured for 0.25 to 24 hrs by LC-MS/MS analysis; assay type: ADME, organism-based; conditions: in vivo, time 0.25-24 hrs
[20] = system: Mycobacterium tuberculosis; assay type: functional; conditions: dose 50 mg/kg; route po; time 4 weeks
[21] = system: Mycobacterium tuberculosis; assay type: functional, H37Rv; conditions: dose 25 mg/kg; route po; time 8 weeks
[22] = system: Mycobacterium tuberculosis; assay type: functional; conditions: H37Rv, 168 h, time 7 day; remark: listed apart in the source
[23] = Solubility of the compound; assay type: physicochemical
[24] = system: HepG2; experiment: Cytotoxicity against human HepG2 cells; assay type: functional
[25] = Oral bioavailability in mouse; assay type: ADME, organism-based; conditions: in vivo
[26] = Inhibition of bacterial InhA expressed in Escherichia coli BL21 (DE3) incubated for 1 hr by […]; set-up: species or system Bacteria
[27] = Half life in mouse; assay type: ADME, organism-based; conditions: in vivo
[28] = system: Mycobacterium tuberculosis; assay type: functional, H37Rv; conditions: dose 300 mg/kg; time 8 day
[29] = system: Mycobacterium tuberculosis; assay type: functional, H37Rv; conditions: dose 100 mg/kg
[30] = molecular target: T1, Voltage-gated inwardly rectifying potassium channel KCNH2; experiment: Inhibition of hERG by Qpatch assay; assay type: toxicity

Molecule `CC(Nc1nc(N2CCCCC2)nc2ccccc12)c1ccccc1` (configuration not stated) has an MIC80 [1] of 25 µM (≈ 8.31 µg/mL).
With `CNc1nc(SC)nc2ccccc12` the MIC [2] was 0.13 µM (≈ 0.0267 µg/mL).
Molecule `O=C(C1CCN(c2nnc(-n3cccc3)s2)CC1)N1CCC(Cc2ccccc2)CC1` has an MIC90 [1] of 4 µM (≈ 1.74 µg/mL).
`c1cc2c(s1)CCOC21CCN(Cc2ccc3c(c2)OCCO3)CC1` showed an MIC90 [1] of 0.3 µM (≈ 0.107 µg/mL).
`COc1ncccc1Nc1cc2nc3ccccc3n(-c3ccc(OC(F)(F)F)cc3)c-2c/c1=N\C1CCC(OC)CC1` (configuration not stated) showed an MIC90 [3] of under 0.008 µM and an Activity [4] of 1.7 log10CFU.
Work on `CCNC(=O)Nc1nc2cc(-c3cnc(C(C)(C)O)nc3)c(F)c([C@H]3CCCO3)c2[nH]1` yielded an MIC90 [5] of 0.07 µM (≈ 0.03 µg/mL).
`CCNC(=O)Nc1nc2cc(-c3cnc(C(C)(C)OP(=O)(O)O)nc3)c(F)c([C@H]3CCCO3)c2[nH]1` showed an Activity [6] of 2.5 log10CFU.
In the case of `CC1(C)CCC(NC(=O)c2cc3c(Cl)cc(Cl)cc3[nH]2)CC1`, the MIC90 [1] is reported as 0.02 µM (≈ 0.00679 µg/mL) and the Activity [7] is reported as 3.1 log10CFU.
For `CCOC(=O)NC(=O)c1ccsc1NC(=O)c1nc2ccccc2s1`, the MIC90 [1] was 0.23 µM (≈ 0.0863 µg/mL) and the Activity [8] was 2.9 log10CFU.
`Fc1ccc(-c2nnc3sc(COc4ccccc4)nn23)cc1` showed an MIC [1] of 25 µM (≈ 8.16 µg/mL).
Work on `O=C(N/N=C/c1cccc(Oc2no[n+]([O-])c2S(=O)(=O)c2ccccc2)c1)c1ccncc1` yielded a CC50 [9] of 30 µM, an Activity [10] of over 6 log10CFU and an MIC90 [11] of 6.7 µM (≈ 3.12 µg/mL). The MIC [12] was 1.6 µM (≈ 0.745 µg/mL).
In the case of `O=C(N/N=C/c1ccc(Oc2no[n+]([O-])c2S(=O)(=O)c2ccccc2)cc1)c1ccncc1`, the CC50 [9] is reported as 43 µM, the Activity [10] is reported as over 6 log10CFU and the MIC90 [11] is reported as 9.8 µM (≈ 4.56 µg/mL). The MIC [12] was 1 µM (≈ 0.465 µg/mL).
With `CCOC(=O)c1c(-c2ccccc2)oc2ccc(O)c(CN3CCC(C)CC3)c12` the MIC90 [1] was 2.5 µM (≈ 0.984 µg/mL).
For `O=c1c(NCc2ccccn2)c(-c2ccc(C(F)(F)F)cc2)c1=O`, the MIC80 [1] was 6.2 µM (≈ 2.06 µg/mL).
`Cc1ccn(C(C)c2nnc(Nc3ccn(Cc4c(F)cccc4Cl)n3)s2)n1` (configuration not stated) gave an MIC90 [13] of 1 µM (≈ 0.418 µg/mL) and a solubility at 1 h [14] of 9 µM (≈ 3.76 µg/mL).
Work on `CCOC(=O)NC(=O)c1ccsc1NC(=O)c1nc2cnccc2s1` yielded an MIC90 [1] of 0.089 µM (≈ 0.0335 µg/mL), an Activity [15] of over 1.7 log10CFU and a CC50 at 72 h [16] of over 100 µM. For the same molecule, the CC50 [17] was over 100 µM, the IC50 [18] was over 30 µM and the Activity [8] was 2.3 log10CFU.
`C[C@@H]1[C@H]2C[C@@H](C[C@H]1NC(=O)c1cc3c(F)cc(F)cc3[nH]1)C2(C)C` showed a bioavailability [19] of 96%, an Activity [7] of 3.6 log10CFU and an Activity [20] of 4.7 log10CFU.
Molecule `N=C(N)NC(=O)c1nc(-c2cc3ccccc3o2)c(N)nc1N` has an MIC [1] of 4 µM (≈ 1.25 µg/mL).
`CON=C1CCC(CN2CCN(c3nc(=O)c4cc(C(F)(F)F)cc([N+](=O)[O-])c4s3)CC2)CC1` (configuration not stated) showed an Activity [21] of 1.8 log10CFU and an MIC90 [22] of 0.028 µM (≈ 0.014 µg/mL).
`O=S1(=O)C[C@H](O)[C@@H](N2CCN(c3ccccc3Cl)CC2)C1` showed an MIC [1] of 0.76 µM (≈ 0.251 µg/mL).
Molecule `FC(F)(F)c1ccc(Oc2ccc(Nc3ncnc4ccccc34)cc2)cc1` has an MIC50 [1] of 25 µM (≈ 9.53 µg/mL).
`FC(F)(F)Oc1ccc(Oc2ccc(CN3CCC4(CC3)OCCc3sccc34)cc2)cc1` showed a solubility [23] of 6 µM (≈ 2.85 µg/mL), an MIC90 [1] of 0.06 µM (≈ 0.0285 µg/mL) and a CC50 [24] of 36 µM. For the same molecule, the bioavailability [25] was 55%.
Work on `Cc1csc([C@](C)(O)c2nnc(Nc3ccn(Cc4csc(C)n4)n3)s2)n1` yielded an MIC90 [13] of 0.2 µM (≈ 0.0839 µg/mL), an IC50 [26] of 0.007 µM and a half-life [27] of 56 min. It also gave a solubility at 1 h [14] of 413 µM (≈ 173 µg/mL), an Activity [28] of 3 log10CFU and an Activity [29] of 3 log10CFU. It also gave an IC50 [30] of over 50 µM, a CC50 [24] of over 50 µM and a bioavailability [25] of 92%.
